According to patent US12172986B2, “Splicing modulator antibody-drug conjugates and methods of use” (EISAI R&D MANAGEMENT CO., LTD., priority 2018, dated 2024):
Values joined by “and” are separate entries in the source; they are usually repeats but may differ in a detail not shown here. Equal values may be shown once.

How the values were obtained:
[1] = in vivo; cited from earlier work
[2] = system: MOLP8 cells; assay: Cell viability, CD138-expressing MOLP8; format: cell-based; conditions: for LD50 (nM) (payload) / Rmin (%) (payload): unconjugated payload of the ADC
[3] = system: MCF7 cells; assay: Cell viability CellTiter-Glo, HER2-negative MCF7; conditions: unconjugated payload of the ADC
Description: HCC1954 (American Type Culture Collection (ATCC)) breast ductal carcinoma cells were plated at 2000 cells/well in flat bottom 96-well tissue culture plates (Corning) in a total volume of 90 μL tissue culture medium supplemented with 10% fetal bovine serum (ThermoFisher Scientific). Cells were treated with a 3-fold serial dilution of compound from 200 nM to 0.03 nM. Each concentration was tested in triplicate. At the time of treatment, a plate of untreated cells was evaluated using CellTiter-Glo®2.0 Luminescent Cell Viability Assay according to the manufacturer's recommendations (Promega; #G9241). CellTiter-Glo® 2.0 reagent was added to the medium, incubated, and assayed on an EnVision Multilabel Reader (PerkinElmer). Values represent time zero (TO). […] Using the luminescence value at time zero (TO), DMSO control growth (C), and test growth in the presence of compound (T144), the percentage growth was calculated at each of the compound concentrations levels. Percentage growth inhibition was calculated as: [(T144-T0)/(C-TO)]×100 for concentrations for which T144>/=TO or [(T144-T0)/T0]×100 for concentrations for which T144<TO. The dose response curve plots were generated using Prism 7 (Graphpad) and fit using nonlinear regression analysis and the log(inhibitor) versus response-variable slope (four parameters).
(§2) HCC1954 (ATCC), 2000 cells/well), N87 (ATCC, 4000 cells/well), SKBR3 (ATCC, 3000 cells/well), and MCF7 (ATCC, 1500 cells/well) cell lines were used.

[4] = Chemical stability of ADC payload, pH 5.5 buffer; conditions: for pH 5.5 Stability (t1/2, 37C): Table 26, corresponding payload, pH 5.5, 37C
[5] = Caco-2 permeability of ADC payload; format: in vitro ADME; conditions: human, Caco-2; payload, B-A/A-B; read-out: Eflux ratio
Description: (§1) Integrity of cell monolayer was confirmed by TEER (transepithelial electrical resistance) and Lucifer yellow. Payloads were spiked in duplicate at 10 μM, separately, on both sides of the cell monolayer. Permeability rates from the apical to basolateral (A-B) direction and the basolateral to apical (B-A) direction were determined by sampling aliquots from both chambers immediately after treatment (t=0) and following incubation for 2 hours. Samples were protein precipitated with organic solvent containing internal standard and analyzed by LC-MS/MS (SCIEX; API 5500). The area ratio responses of payload/internal standard over time in both directions were used to generate permeability (cm/see) values. Efflux ratio was calculated by dividing B-A/A-B. Control compounds for low and high permeability and efflux behaved as expected.

[6] = system: Caco-2 cells; assay: Caco-2 permeability of ADC payload; format: in vitro ADME; conditions: for Permeability Caco-2 A-B (10e-6 cm/s): Table 26, corresponding payload; for Eflux ratio: B-A/A-B; for Perm. Mean Caco-2 A-B Perm (10e-6 cm/s) / Perm. Mean Caco-2 B-A Perm (10e-6 cm/s): corresponding free payload of the ADC
Description: as §1

[7] = system: Ad2.2 pre-mRNA splicing; assay: In vitro splicing (IVS) RT-qPCR, Ad2.2 pre-mRNA, HeLa nuclear extract; format: biochemical; conditions: payload of the ADC; read-out: qPCR-IVS-AT S GMean IC50 (nM) Ad2.2 HELA.2
Description: To evaluate payload activity in a cell-free system, an in vitro splicing assay was performed. The payloads were incubated with nuclear extracts and pre-mRNA substrate minigenes.
HeLa nuclear extract preparation: HeLa S3 cell pellets were resuspended in hypotonic buffer (10 mM HEPES pH 7.9, 1.5 mM MgCl2, 10 mM KCl, 0.2 mM PMSF, 0.5 mM DTT) and the suspension was brought up to a total of 5 packed cell volume (PCV). After centrifugation, the supernatant was discarded, and the cells were brought up to 3 PCV with hypotonic buffer and incubated on ice for 10 min. Cells were lysed using a dounce homogenizer and then centrifuged. […]. The nuclei were gently mixed for 30 min before centrifuging. The supernatant (nuclear extract) was then dialyzed into storage buffer (20 mM HEPES pH 7.9, 100 mM KCl, 0.2 mM EDTA, 20% glycerol, 0.2 mM PMSF, 0.5 mM DTT). Protein concentration was determined using NanoDrop 8000 UV-Vis spectrophotometer (ThermoFisher Scientific).
IVS: All Ad2-derived sequences (Pellizzoni et al. (1998) Cell 95(5):615-24) were cloned into pcDNA3.1(+) vector (Promega) using 5′ EcoRI and 3′ Xbal restriction sites. The plasmids were linearized using Xbal and used as DNA templates in in vitro transcription reactions. The FtzΔi intron-less plasmid (Luo and Reed (1999) 96(26):14937-42) was linearized using EcoRI. All RNAs were in vitro transcribed and then purified using MEGAScript T7 (Invitrogen) and MegaClear (Invitrogen) kits, respectively. For splicing reactions using Ad2 variant pre-mRNAs, 1 μL reactions were prepared using 8 μg nuclear extracts prepared from HeLa S3, 2 ng pre-mRNA, 0.2 ng FTZΔi, and varying concentrations of compounds or DMSO. After a 15 min pre-incubation at 30° C., 1 μL splicing activation buffer (0.5 mM ATP, 20 mM creatine phosphate, 1.6 mM MgCl2) was added, and the reactions were incubated for 90 min at 30° C. The reactions were then quenched with 13 μL DMSO, and 25 nL was used for RT-qPCR. RT-qPCR reactions were prepared using TaqMan RNA-to-CT 1-step kit (Life Technologies), RNA from splicing reactions, Ad2 (forward: […]; reverse: […]; probe: […]) and Ftz (forward: […]; reverse: […]; probe: […]) mRNA primer-probe sets. Prism 7 (Graphpad) was used for non-linear regression curve fitting of the formed spliced product and normalized to the control (DMSO) sample. […] In the presence of payload, a decrease in the amount of spliced product was observed.

[8] = system: HCC1954 cells; assay: Cell viability CellTiter-Glo, HCC1954; format: cell-based; conditions: unconjugated payload of the ADC
Description: (§3) HCC1954 (American Type Culture Collection (ATCC)) breast ductal carcinoma cells were plated at 2000 cells/well in flat bottom 96-well tissue culture plates (Corning) in a total volume of 90 μL tissue culture medium supplemented with 10% fetal bovine serum (ThermoFisher Scientific). Cells were treated with a 3-fold serial dilution of compound from 200 nM to 0.03 nM. Each concentration was tested in triplicate. At the time of treatment, a plate of untreated cells was evaluated using CellTiter-Glo®2.0 Luminescent Cell Viability Assay according to the manufacturer's recommendations (Promega; #G9241). CellTiter-Glo® 2.0 reagent was added to the medium, incubated, and assayed on an EnVision Multilabel Reader (PerkinElmer). Values represent time zero (TO). […] Percentage growth inhibition was calculated as: [(T144-T0)/(C-TO)]×100 for concentrations for which T144>/=TO or [(T144-T0)/T0]×100 for concentrations for which T144<TO. The dose response curve plots were generated using Prism 7 (Graphpad) and fit using nonlinear regression analysis and the log(inhibitor) versus response-variable slope (four parameters).
as §2

[9] = system: Ad2.1 pre-mRNA splicing; assay: In vitro splicing (IVS) RT-qPCR, Ad2.1 pre-mRNA, HeLa nuclear extract; format: biochemical; conditions: payload of the ADC; read-out: qPCR-IVS-AT S Gmean IC50 (nm) Ad2.1 HELA.2
Description: HeLa nuclear extract preparation: HeLa S3 cell pellets were resuspended in hypotonic buffer (10 mM HEPES pH 7.9, 1.5 mM MgCl2, 10 mM KCl, 0.2 mM PMSF, 0.5 mM DTT) and the suspension was brought up to a total of 5 packed cell volume (PCV). After centrifugation, the supernatant was discarded, and the cells were brought up to 3 PCV with hypotonic buffer and incubated on ice for 10 min. Cells were lysed using a dounce homogenizer and then centrifuged. […] The nuclei were gently mixed for 30 min before centrifuging. The supernatant (nuclear extract) was then dialyzed into storage buffer (20 mM HEPES pH 7.9, 100 mM KCl, 0.2 mM EDTA, 20% glycerol, 0.2 mM PMSF, 0.5 mM DTT). Protein concentration was determined using NanoDrop 8000 UV-Vis spectrophotometer (ThermoFisher Scientific).
IVS: All Ad2-derived sequences (Pellizzoni et al. (1998) Cell 95(5):615-24) were cloned into pcDNA3.1(+) vector (Promega) using 5′ EcoRI and 3′ Xbal restriction sites. The plasmids were linearized using Xbal and used as DNA templates in in vitro transcription reactions. The FtzΔi intron-less plasmid (Luo and Reed (1999) 96(26):14937-42) was linearized using EcoRI. All RNAs were in vitro transcribed and then purified using MEGAScript T7 (Invitrogen) and MegaClear (Invitrogen) kits, respectively. For splicing reactions using Ad2 variant pre-mRNAs, 1 μL reactions were prepared using 8 μg nuclear extracts prepared from HeLa S3, 2 ng pre-mRNA, 0.2 ng FTZΔi, and varying concentrations of compounds or DMSO. After a 15 min pre-incubation at 30° C., 1 μL splicing activation buffer (0.5 mM ATP, 20 mM creatine phosphate, 1.6 mM MgCl2) was added, and the reactions were incubated for 90 min at 30° C. The reactions were then quenched with 13 μL DMSO, and 25 nL was used for RT-qPCR. RT-qPCR reactions were prepared using TaqMan RNA-to-CT 1-step kit (Life Technologies), RNA from splicing reactions, Ad2 (forward: [sequence]; reverse: [sequence]; probe: [sequence]) and Ftz (forward: [sequence]; reverse: [sequence]; probe: [sequence]) mRNA primer-probe sets. Prism 7 (Graphpad) was used for non-linear regression curve fitting of the formed spliced product and normalized to the control (DMSO) sample.

[10] = system: PC3 cells; assay: Cell viability, EPHA2-expressing PC3; format: cell-based; conditions: corresponding payload alone
Description: as §3

[11] = system: N87 cells; assay: Cell viability CellTiter-Glo, N87; format: cell-based, human; conditions: unconjugated payload of the ADC
Description: as §3, §2

[12] = system: THP1.1; assay: Payload cell potency and lethality CTGlo 72 h, THP1.1; format: cell-based; conditions: payload
[13] = target: T1, SF3b complex (Homo sapiens, UniProt O75533+Q7RTV0); assay: SF3B1 binding / scintillation proximity assay (SPA); conditions: payload of the ADC; read-out: SPA-AT S GMean IC50 (nM) SF381 (WT) HELA.2
T1 construct: The beads were suspended and added to the prepared nuclear extracts
Description: A scintillation proximity assay was performed to measure the binding affinity of compounds (“payloads”) to the SF3b complex. Batch immobilization of anti-SF3B1 antibody (MBL) to anti-mouse PVT SPA scintillation beads (PerkinElmer) was prepared as follows: for every 2.5 mg of nuclear extracts, 5 μg of anti-SF3B1 antibody and 1.5 mg of beads were mixed in 150 μL PBS. The antibody-bead mixture was incubated for 30 min at RT and centrifuged at 18,000g for 5 min. 150 μL PBS was used to resuspend every 1.5 mg antibody-bead mixture. The beads were suspended and added to the prepared nuclear extracts. The slurry was incubated for 2 hours at 4° C. with gentle mixing. The beads were then collected by centrifuging at 18,000g for 5 min, and washed twice with PBS+0.1% Triton X-100. After a final centrifugation step, every 1.5 mg of beads was suspended with 150 μL of PBS. […] The mixture was incubated for 30 min, and luminescence signals were read using a MicroBeta2 Plate Counter (PerkinElmer).

| Molecule | LD50 (nM) (payload) [2] | Rmin (%) (payload) [2] | Payload LD50 [3] [nM] | Payload Rmin (%) [3] [%] | pH 5.5 Stability (t1/2, 37C) [4] | efflux ratio at 2 h, 10 μM [5] | Permeability Caco-2 A-B (10e-6 cm/s) [6] | IC50 [7] [nM] | Payload LD50 [8] [nM] | Payload Rmin (%) [8] | IC50 [9] | Payload LD50 [10] [nM] | Payload LD50 [11] [nM] | CTGlo-AT S GMean LD50 (nM) 72 h THP1.1 [12] [nM] | also measured |
| --- | --- | --- | --- | --- | --- | --- | --- | --- | --- | --- | --- | --- | --- | --- | --- |
| ipilimumab |  |  |  |  |  |  |  |  |  |  |  |  |  |  | plasma half-life [1]: 12 to 14 days |
| CC[C@H](O)[C@@H](C)[C@H]1O[C@@H]1C[C@@](C)(O)/C=C/C=C(\C)[C@H]1OC(=O)C[C@H](O)CC[C@@](C)(OC)[C@@H](OC(=O)N2CCN(C)CC2)/C=C/[C@@H]1C [D2, (2S,3S,6S,7R,10R,E)-10-hydroxy-2-((R,2E,4E)-6-hydroxy-7-((2R,3R)-3-((2R,3S)-3-hydroxypentan-2-yl)oxiran-2-yl)-6-methylhepta-2,4-dien-2-yl)-7-methoxy-3,7-dimethyl-12-oxooxacyclododec-4-en-6-yl 4-methylpiperazine-1-carboxylate] | 5.035 | −100.198 | 30.318 | −66.915 | 4 | 22.8 | 0.6 10e-6 cm/s | 15.3 | 2.758 | −78.732% | 19.1 nM and 19.3 nM | >400 | >200 | 11.708 | Eflux ratio ([6]; payload): 22.756 |
| C/C(=C\c1cc(F)cc(N2CCOCC2)c1)[C@H]1OC(=O)C[C@H](O)CC[C@H](C)[C@@H](OC(=O)N2CCN(C)CC2)/C=C/[C@@H]1C [D17] |  |  |  |  | 7 | 0.896 | 20 10e-6 cm/s | 9.44 |  |  | 17.9 nM |  |  | 24.908 |  |
| C/C(=C\c1cccc(S(=O)(=O)N2CCCC2)c1)[C@H]1OC(=O)C[C@H](O)CC[C@H](C)[C@@H](OC(=O)N2CCN(C)CC2)/C=C/[C@@H]1C [D34] |  |  |  |  | 7 |  | 26 10e-6 cm/s |  |  |  |  |  |  |  |  |
| C/C(=C\c1cc(F)cc(N2CCN(C(=O)Cn3cccn3)CC2)c1)[C@H]1OC(=O)C[C@H](O)CC[C@H](C)[C@@H](OC(=O)N2CCNCC2)/C=C/[C@@H]1C [D16] |  |  |  |  | 7 | 32.4 | 0.72 10e-6 cm/s | 15.1 | 2.037 | −84.412% | 16 nM |  | >200 | 21.46 | GI50 ([8]; Homo sapiens): 0.358 nM; GI50 ([11]; Homo sapiens): 0.41 nM |
| CC[C@H](O)[C@@H](C)C1OC1C[C@@](C)(O)/C=C/C=C(\C)[C@H]1OC(=O)C[C@H](O)CC[C@@](C)(OC)[C@@H](OC(=O)N2CCNCC2)/C=C/[C@@H]1C (stereo in doubt) [D1, (2S,3S,6S,7R,10R,E)-10-hydroxy-2-((R,2E,4E)-6-hydroxy-7-((2S,3S)-3-((2R,3S)-3-hydroxypentan-2-yl)oxiran-2-yl)-6-methylhepta-2,4-dien-2-yl)-7-methoxy-3,7-dimethyl-12-oxooxacyclododec-4-en-6-yl piperazine-1-carboxylate] | 25.712 | −100.248 | 135.42 | −63.414 |  | 14.6 |  | 15.9 | 5.485 | −78.579% and −75.579% | 17.6 nM | >400 | >200 | 41.408 | GI50 ([2]; Homo sapiens, MOLP-8, unconjugated payload of the ADC, read-out: GI50 (nM) (payload)): 6.88 nM; Perm. Mean Caco-2 A-B Perm (10e-6 cm/s) [6]: 0.14 10e-6 cm/s; Perm. Mean Caco-2 B-A Perm (10e-6 cm/s) [6]: 2.05 10e-6 cm/s; Eflux ratio ([6]; payload): 14.643 |
| tremelimumab |  |  |  |  |  |  |  |  |  |  |  |  |  |  | plasma half-life [1]: approximately 22 days |
| CC[C@H](O)[C@@H](C)[C@H]1O[C@@H]1C[C@H](C)/C=C/C=C(\C)[C@H]1OC(=O)C[C@H](O)CC[C@@](C)(OC)[C@@H](OC(=O)N2CCN(C)CC2)/C=C/[C@@H]1C [D19, (2S,3S,6S,7R,10R,E)-10-hydroxy-2-((S,2E,4E)-7-((2R,3R)-3-((2R,3S)-3-hydroxypentan-2-yl)oxiran-2-yl)-6-methylhepta-2,4-dien-2-yl)-7-methoxy-3,7-dimethyl-12-oxooxacyclododec-4-en-6-yl 4-methylpiperazine-1-carboxylate] | 4.58 | −62.2 |  |  | 0.8 |  | 16 10e-6 cm/s |  |  |  |  |  |  |  |  |
| CC[C@H](O)[C@@H](C)C1OC1C[C@@](C)(O)/C=C/C=C(\C)[C@H]1OC(=O)C[C@H](O)CC[C@@](C)(OC(C)=O)[C@@H](OC(=O)N2CCNCC2)/C=C/[C@@H]1C (stereo in doubt) [D4, (2S,3S,6S,7R,10R,E)-7-acetoxy-10-hydroxy-2-((R,2E,4E)-6-hydroxy-7-((2S,3S)-3-((2R,3S)-3-hydroxypentan-2-yl)oxiran-2-yl)-6-methylhepta-2,4-dien-2-yl)-3,7-dimethyl-12-oxooxacyclododec-4-en-6-yl piperazine-1-carboxylate] | 12.99 | −101.935 | 96.46 | −60.923 | 4.5 |  | 0.1 10e-6 cm/s | 17.3 | 6.374 | −81.34% | 20.9 nM | >400 | 38.774 | 33.329 | Perm. Mean Caco-2 A-B Perm (10e-6 cm/s) [6]: 0.1 10e-6 cm/s; Perm. Mean Caco-2 B-A Perm (10e-6 cm/s) [6]: 1.79 10e-6 cm/s; Eflux ratio ([6]; payload): 17.9 |
| COc1cc2cc(c1Cl)N(C)C(=O)C[C@H](OC(=O)[C@H](C)N(C)C(=O)CCS)[C@]1(C)O[C@H]1[C@H](C)[C@@H]1C[C@@](O)(NC(=O)O1)[C@H](OC)/C=C/C=C(\C)C2 [DM1, reference compound] |  |  |  |  |  |  |  | > 25000 |  |  | > 25000 nM |  |  | 3.287 | Stability Mean Stability t1/2 pH5.5 (d) ([4]; payload, 20 μM, pH 5.5 buffer, 37° C.): 1.3 d; Permeability Mean Caco-2 A-B Perm (10e-6 cm/s) ([6]; payload, 10 μM, 2 hours, apical to basolateral): 0.38 10e-6 cm/s; Permeability Mean Caco-2 B-A Perm (10e-Gcm/s) ([6]; payload, 10 μM, 2 hours, basolateral to apical): 28.6 10e-Gcm/s; IC50 [13]: > 1200 nM; CTGlo-AT S Mean MinResponse % 72 h THP1.1 [12]: −93.785% |
| CC(=O)N1CCC(n2nnc3c(F)cc(/C=C(\C)[C@H]4OC(=O)C[C@H](O)CC[C@H](C)[C@@H](OC(=O)N5CCN(C)CC5)/C=C/[C@@H]4C)cc32)CC1 [D15] | 9.178 | −100.198 | 130.398 | −68.503 | 7 |  | 3.4 10e-6 cm/s | 4.93 |  |  | 4.63 nM | >400 |  | 11.038 |  |
